From patent publication US20240150377A1, “MODULATORS OF CYSTIC FIBROSIS TRANSMEMBRANE CONDUCTANCE REGULATOR” (VERTEX PHARMACEUTICALS INCORPORATED, priority 2020, published 2024) come the findings set out here.

Each structure is given as a SMILES string. pEC50: −log10 of the molar value. Read-outs that look alike come from different tables or passages of the source. A value given as a limit tells only on which side of the number the result lay.

For orientation: pEC50 means the EC50 on a negative log10 scale, so that one unit is a factor of ten.

The target of the assay is T1, CFTR (Homo sapiens, UniProt P13569, DEL508-508).
T1 construct: endogenous in cells; host or cells: primary human bronchial epithelial cells from CF subjects (F508del/MF-HBE), differentiated at air-liquid interface
In words: HBE assay: Ussing chamber assay of CFTR-mediated short-circuit currents. The following applies: for pEC50: read-out: HBE EC50; for activation at 10 µM: read-out: HBE Activity at 10 μM (%). It is filed as cell-based. An outline of the steps:
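CFTR-mediated Isc (μA/cm²) equals the peak response to apical 20 μM forskolin minus the residual after a 20 μM each BPO/GlyH-101/CFTR inhibitor 172 cocktail, recorded in Ussing chambers at Vhold 0 mV, 37 °C, pH 7.4, with 30 μM apical amiloride. Cells were F508del/MF HBE cultures preincubated 18-24 h with corrector (concentration range or 10 μM) plus 1 μM ivacaftor in 20% human serum.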

Setting [1] is: Table 10, read-out: HBE Max activity (%).
Setting [2] is: Table 13, read-out: HBE Max Activity (%).
Setting [3] is: Table 12, read-out: HBE Max Activity (%).
Where [4] appears, read: HBE assay, read-out: HBE Max activity (%).

T1 sequence (P13569 with tags, fused parts or gaps DEL508-508): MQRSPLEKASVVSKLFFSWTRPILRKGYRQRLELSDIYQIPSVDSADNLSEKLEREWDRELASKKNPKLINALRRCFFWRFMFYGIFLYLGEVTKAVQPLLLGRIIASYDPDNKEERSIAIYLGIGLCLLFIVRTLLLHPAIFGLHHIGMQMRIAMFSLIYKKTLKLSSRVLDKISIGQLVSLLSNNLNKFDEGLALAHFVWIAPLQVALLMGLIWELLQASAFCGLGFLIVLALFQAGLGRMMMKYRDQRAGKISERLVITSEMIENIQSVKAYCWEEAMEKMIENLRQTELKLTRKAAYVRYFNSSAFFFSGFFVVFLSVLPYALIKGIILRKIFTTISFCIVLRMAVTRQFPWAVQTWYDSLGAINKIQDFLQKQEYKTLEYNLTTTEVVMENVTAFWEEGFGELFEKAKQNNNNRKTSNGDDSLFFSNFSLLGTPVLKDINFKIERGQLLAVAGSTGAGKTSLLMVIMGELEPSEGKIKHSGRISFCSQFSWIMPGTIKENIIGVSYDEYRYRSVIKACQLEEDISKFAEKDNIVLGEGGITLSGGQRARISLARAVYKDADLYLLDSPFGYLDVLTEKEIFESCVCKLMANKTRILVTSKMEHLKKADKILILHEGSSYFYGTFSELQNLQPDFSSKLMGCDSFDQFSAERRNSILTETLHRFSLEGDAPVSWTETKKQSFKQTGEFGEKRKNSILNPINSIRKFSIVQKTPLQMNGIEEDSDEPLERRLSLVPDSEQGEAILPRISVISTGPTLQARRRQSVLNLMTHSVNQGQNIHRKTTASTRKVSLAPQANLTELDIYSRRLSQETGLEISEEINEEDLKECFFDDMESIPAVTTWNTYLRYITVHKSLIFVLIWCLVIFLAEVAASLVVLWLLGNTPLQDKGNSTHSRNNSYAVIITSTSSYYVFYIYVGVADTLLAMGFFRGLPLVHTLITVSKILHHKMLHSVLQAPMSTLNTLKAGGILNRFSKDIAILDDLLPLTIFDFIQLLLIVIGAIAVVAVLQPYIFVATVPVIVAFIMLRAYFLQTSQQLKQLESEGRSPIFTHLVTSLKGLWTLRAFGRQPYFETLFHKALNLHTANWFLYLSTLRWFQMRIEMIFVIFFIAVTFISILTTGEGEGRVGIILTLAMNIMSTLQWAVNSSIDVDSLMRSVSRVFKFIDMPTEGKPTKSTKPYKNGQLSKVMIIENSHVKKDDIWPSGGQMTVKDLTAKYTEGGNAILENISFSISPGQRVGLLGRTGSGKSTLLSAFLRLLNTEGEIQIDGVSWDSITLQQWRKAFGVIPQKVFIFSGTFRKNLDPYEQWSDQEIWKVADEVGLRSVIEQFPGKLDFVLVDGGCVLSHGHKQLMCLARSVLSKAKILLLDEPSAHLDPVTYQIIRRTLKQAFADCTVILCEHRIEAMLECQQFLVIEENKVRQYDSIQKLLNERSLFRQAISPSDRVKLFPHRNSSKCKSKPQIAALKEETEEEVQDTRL

As for `Cc1cccc(C)c1-c1cc2nc(n1)NS(=O)(=O)c1cccc(c1)C(=O)N(Cc1cccc(N3CC(=O)NC3=O)c1)[C@H](CC(C)(C)C)CO2` [Compound 148, 1-[3-[[(11R)-6-(2,6-Dimethylphenyl)-11-(2,2-dimethylpropyl)-2,2,13-trioxo-9-oxa-2λ^6-thia-3,5,12,19-tetrazatricyclo[12.3.1.14,8]nonadeca-1(18),4(19),5,7,14,16-hexaen-12-yl]methyl]phenyl]imidazolidine-2,4-dione], for the setting “Table 10”, the pEC50 is 5.52 to 6.00. Moreover, the Emax under setting [1] was greater than 60%. For `Cc1cccc(C)c1-c1cc2nc(n1)NS(=O)(=O)c1cccc(c1)C(=O)N(Cc1ncc(C3CC4(C3)CC(C)(C)C4)cn1)[C@H](CC(C)(C)C)CO2` [Compound 162], the pEC50 (Table 13) is greater than 6.00. The Emax under setting [2] is greater than 60%. For `Cc1cccc(C)c1-c1cc2nc(n1)NS(=O)(=O)c1cccc(c1)C(=O)N(Cc1cncc(N(C)CC(C)(C)C)n1)[C@H](CC(C)C)CO2` [Compound 551], under “Table 12”, the pEC50 is greater than 6.00. Moreover, the Emax under setting [3] was greater than 60%. On to `Cc1cccc(C)c1-c1cc2nc(n1)NS(=O)(=O)c1cc(n(C)n1)C(=O)N(Cc1ccc(N3CCOCC3)cc1)[C@H](CC(C)(C)C)CO2` [Compound 906], for which, where the note is “Table 10”, the pEC50 is greater than 6.00. Moreover, the Emax under setting [1] is greater than 60%.

As for `Cc1cccc(C)c1-c1cc2nc(n1)NS(=O)(=O)c1cccc(c1)C(=O)N(Cc1ncc(OC(C)C)cn1)[C@H](CC1(C(F)(F)F)CC1)CO2` [Compound 1120], the pEC50 (Table 13) is greater than 6.00. The Emax under setting [2] is greater than 60%. Regarding `Cc1cccc(C)c1-c1cc2nc(n1)NS(=O)(=O)c1cccc(c1)C(=O)N(C[C@H]1C[C@@H](NC(=O)OC(C)C)C1)[C@H](CC(C)(C)C)CO2` [Compound 1005], the pEC50 (Table 12) is greater than 6.00. Further, under setting [3], the Emax is greater than 60%. On to `Cc1cccc(C)c1-c1cc2nc(n1)NS(=O)(=O)c1cccc(c1)C(=O)N(Cc1cncc(N3CCCC3C)n1)[C@H](CC(C)(C)C)CO2` (stereo in doubt) [Compound 1366], for which the pEC50 (HBE assay) was greater than 6.00. In addition, the Emax under setting [4] is greater than 60%.

`Cc1cccc(C)c1-c1cc2nc(n1)NS(=O)(=O)c1cccc(c1)C(=O)N(Cc1cc(NC(C)C)ccn1)[C@H](CC(C)(C)C)CO2` [Compound 995]: the activation at 10 µM (Table 13, at 10 μM) is greater than 600%. Still for that read-out and setting: to `Cc1cccc(C)c1-c1cc2nc(n1)NS(=O)(=O)c1cccc(c1)C(=O)N(CC(=O)N1CC3(CCC3)C1)[C@H](CC(C)(C)C)CO2` [Compound 170] belongs 30 to 60%.

In the case of `CC[C@H](C)[C@@H]1COc2cc(-c3c(C)cccc3C)nc(n2)NS(=O)(=O)c2cccc(c2)C(=O)N1Cc1ncc(OC(C)C)cn1` [Compound 1471], where the note is “HBE assay”, the pEC50 was greater than 6.00. Also, under setting [4], the Emax is greater than 60%. In the case of `Cc1cccc(C)c1-c1cc2nc(n1)NS(=O)(=O)c1cccc(c1)C(=O)N(Cc1ccccc1OCC(C)(C)OO)[C@H](CC(C)(C)C)CO2` [Compound 781], the pEC50 (Table 10) is greater than 6.00. The Emax under setting [1] was greater than 60%. Take `CC[C@@]1(CO)CCCN1c1cccc(CN2C(=O)c3cccc(c3)S(=O)(=O)Nc3nc(cc(-c4c(C)cccc4C)n3)OC[C@H]2CC(C)(C)C)n1` (stereo in doubt) [Compound 1459]: the activation at 10 µM (HBE assay, 10 μM) was greater than 60%.

`Cc1cccc(C)c1-c1cc2nc(n1)NS(=O)(=O)c1cccc(c1)C(=O)N(Cc1cccc(N3CCC[C@@H]3CC(C)C)n1)[C@H](CC(C)(C)C)CO2` [Compound 1428]: the pEC50 (HBE assay) was greater than 6.00. The Emax under setting [4] was greater than 60%. As for `Cc1cccc(C)c1-c1cc2nc(n1)NS(=O)(=O)c1cccc(c1)C(=O)N(CC1CC(N3CC(C)OC(C)C3)C1)[C@H](CC(C)(C)C)CO2` (stereo partly drawn) [Compound 65, (11R)-12-[[3-(2,6-Dimethylmorpholin-4-yl)cyclobutyl]methyl]-6-(2,6-dimethylphenyl)-11-(2,2-dimethylpropyl)-2,2-dioxo-9-oxa-2λ^6-thia-3,5,12,19-tetrazatricyclo[12.3.1.14,8]nonadeca-1(18),4(19),5,7,14,16-hexaen-13-one], the activation at 10 µM was greater than 60%.
